How the values were obtained:
Test in all cases: relative viability vs DMSO control (72 h) (fraction); higher = more viable cells
SYO-1 = system: SYO-1
Outline: (§1)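 Sarcoma cell lines were plated in 384 wells to reach 80–90% confluence, treated after 24 h with 2.5 µl of serially diluted compound and held 72 h at 37 °C, 5% CO2. Relative viability was taken as percent growth from ATPLite readings, averaged over up to triplicate wells. The values were rescaled so that 1 marks full and 0 marks none.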

HT1080 = system: HT1080
Outline: as §1

KHOS-NP = system: KHOS-NP
Outline: as §1

VA-ES-BJ = system: VA-ES-BJ
Outline: as §1

SK-LMS-1 = system: SK-LMS-1
Outline: as §1

A204 = system: A204
Outline: as §1

HS729 = system: HS729
Outline: as §1

SW684 = system: SW684
Outline: as §1

SW872 = system: SW872
Outline: as §1

SW1353 = system: SW1353
Outline: as §1

MES-SA = system: MES-SA
Outline: as §1

G401 = system: G401
Outline: as §1

O=C(/C=C\n1cnc(-c2cc(C(F)(F)F)cc(C(F)(F)F)c2)n1)NNc1cnccn1 [Selinexor]
Conditions | relative viability
A204, 0.00017 µM | 1.1
A204, 0.00051 µM | 1.11
A204, 0.00152 µM | 1.08
A204, 0.00457 µM | 1.08
A204, 0.01372 µM | 0.996
A204, 0.04115 µM | 0.884
A204, 0.1235 µM | 0.677
A204, 0.3704 µM | 0.441
A204, 1.111 µM | 0.299
A204, 3.333 µM | 0.218
A204, 10 µM | 0.171
G401, 0.00017 µM | 1.07
G401, 0.00051 µM | 1.05
G401, 0.00152 µM | 1.04
G401, 0.00457 µM | 0.985
G401, 0.01372 µM | 0.943
G401, 0.04115 µM | 0.8726
G401, 0.1235 µM | 0.743
G401, 0.3704 µM | 0.463
G401, 1.111 µM | 0.366
G401, 3.333 µM | 0.272
G401, 10 µM | 0.235
HS729, 0.00017 µM | 1.07
HS729, 0.00051 µM | 1.06
HS729, 0.00152 µM | 1.05
HS729, 0.00457 µM | 0.98
HS729, 0.01372 µM | 0.929
HS729, 0.04115 µM | 0.835
HS729, 0.1235 µM | 0.7742
HS729, 0.3704 µM | 0.741
HS729, 1.111 µM | 0.676
HS729, 3.333 µM | 0.602
HS729, 10 µM | 0.499
HT1080, 0.00017 µM | 1.11
HT1080, 0.00051 µM | 1.14
HT1080, 0.00152 µM | 1.13
HT1080, 0.00457 µM | 1.11
HT1080, 0.01372 µM | 1.082
HT1080, 0.04115 µM | 1.088
HT1080, 0.1235 µM | 0.814
HT1080, 0.3704 µM | 0.375
HT1080, 1.111 µM | 0.3301
HT1080, 3.333 µM | 0.2689
HT1080, 10 µM | 0.2291
KHOS-NP, 0.00017 µM | 1.09
KHOS-NP, 0.00051 µM | 1.12
KHOS-NP, 0.00152 µM | 1.131
KHOS-NP, 0.00457 µM | 1.13
KHOS-NP, 0.01372 µM | 1.12
KHOS-NP, 0.04115 µM | 1.05
KHOS-NP, 0.1235 µM | 0.727
KHOS-NP, 0.3704 µM | 0.238
KHOS-NP, 1.111 µM | 0.184
KHOS-NP, 3.333 µM | 0.0993
KHOS-NP, 10 µM | 0.0794
MES-SA, 0.00017 µM | 1.011
MES-SA, 0.00051 µM | 0.985
MES-SA, 0.00152 µM | 0.971
MES-SA, 0.00457 µM | 0.965
MES-SA, 0.01372 µM | 0.911
MES-SA, 0.04115 µM | 0.808
MES-SA, 0.1235 µM | 0.4844
MES-SA, 0.3704 µM | 0.342
MES-SA, 1.111 µM | 0.255
MES-SA, 3.333 µM | 0.189
MES-SA, 10 µM | 0.1447
SK-LMS-1, 0.00017 µM | 1.03
SK-LMS-1, 0.00051 µM | 1.03
SK-LMS-1, 0.00152 µM | 0.98
SK-LMS-1, 0.00457 µM | 0.95
SK-LMS-1, 0.01372 µM | 0.856
SK-LMS-1, 0.04115 µM | 0.736
SK-LMS-1, 0.1235 µM | 0.512
SK-LMS-1, 0.3704 µM | 0.319
SK-LMS-1, 1.111 µM | 0.241
SK-LMS-1, 3.333 µM | 0.246
SK-LMS-1, 10 µM | 0.234
SW684, 0.00017 µM | 1.14
SW684, 0.00051 µM | 1.24
SW684, 0.00152 µM | 1.23
SW684, 0.00457 µM | 1.25
SW684, 0.01372 µM | 1.18
SW684, 0.04115 µM | 1.17
SW684, 0.1235 µM | 0.953
SW684, 0.3704 µM | 0.885
SW684, 1.111 µM | 0.819
SW684, 3.333 µM | 0.754
SW684, 10 µM | 0.686
SW872, 0.00017 µM | 1.065
SW872, 0.00051 µM | 1.07
SW872, 0.00152 µM | 1.075
SW872, 0.00457 µM | 1.07
SW872, 0.01372 µM | 1.06
SW872, 0.04115 µM | 0.989
SW872, 0.1235 µM | 0.823
SW872, 0.3704 µM | 0.752
SW872, 1.111 µM | 0.537
SW872, 3.333 µM | 0.365
SW872, 10 µM | 0.306
SW1353, 0.00017 µM | 1.11
SW1353, 0.00051 µM | 1.06
SW1353, 0.00152 µM | 1.12
SW1353, 0.00457 µM | 1.05
SW1353, 0.01372 µM | 1.03
SW1353, 0.04115 µM | 0.999
SW1353, 0.1235 µM | 0.883
SW1353, 0.3704 µM | 0.792
SW1353, 1.111 µM | 0.672
SW1353, 3.333 µM | 0.616
SW1353, 10 µM | 0.511
SYO-1, 0.00017 µM | 1.02
SYO-1, 0.00051 µM | 1.02
SYO-1, 0.00152 µM | 1.02
SYO-1, 0.00457 µM | 0.928
SYO-1, 0.01372 µM | 0.804
SYO-1, 0.04115 µM | 0.63
SYO-1, 0.1235 µM | 0.534
SYO-1, 0.3704 µM | 0.41
SYO-1, 1.111 µM | 0.25
SYO-1, 3.333 µM | 0.136
SYO-1, 10 µM | 0.0755
VA-ES-BJ, 0.00017 µM | 1.1
VA-ES-BJ, 0.00051 µM | 1.09
VA-ES-BJ, 0.00152 µM | 1.08
VA-ES-BJ, 0.00457 µM | 1.03
VA-ES-BJ, 0.01372 µM | 0.953
VA-ES-BJ, 0.04115 µM | 0.78
VA-ES-BJ, 0.1235 µM | 0.565
VA-ES-BJ, 0.3704 µM | 0.318
VA-ES-BJ, 1.111 µM | 0.198
VA-ES-BJ, 3.333 µM | 0.187
VA-ES-BJ, 10 µM | 0.165
